According to patent US5292737A, “N,N'-bis(sulfonamido)-2-amino-4-iminonaphthalen-1-ones and N,N'-bis(amido)-2-amino-4-iminonaphthalen-1-ones” (Sphinx Pharmaceuticals Corporation, priority 1992, dated 1994):

Assays:
PKC isoenzyme ζ = target: T1, PKC isoenzyme ζ (Homo sapiens, UniProt Q05513); assay: Protein kinase C inhibition assay, PKC isoenzyme ζ; type: biochemical; details: read-out: IC50 PKC .zeta.
T1 construct: made in house; host or cells: baculovirus-insect cell expression system
T1 sequence (Q05513 1-592): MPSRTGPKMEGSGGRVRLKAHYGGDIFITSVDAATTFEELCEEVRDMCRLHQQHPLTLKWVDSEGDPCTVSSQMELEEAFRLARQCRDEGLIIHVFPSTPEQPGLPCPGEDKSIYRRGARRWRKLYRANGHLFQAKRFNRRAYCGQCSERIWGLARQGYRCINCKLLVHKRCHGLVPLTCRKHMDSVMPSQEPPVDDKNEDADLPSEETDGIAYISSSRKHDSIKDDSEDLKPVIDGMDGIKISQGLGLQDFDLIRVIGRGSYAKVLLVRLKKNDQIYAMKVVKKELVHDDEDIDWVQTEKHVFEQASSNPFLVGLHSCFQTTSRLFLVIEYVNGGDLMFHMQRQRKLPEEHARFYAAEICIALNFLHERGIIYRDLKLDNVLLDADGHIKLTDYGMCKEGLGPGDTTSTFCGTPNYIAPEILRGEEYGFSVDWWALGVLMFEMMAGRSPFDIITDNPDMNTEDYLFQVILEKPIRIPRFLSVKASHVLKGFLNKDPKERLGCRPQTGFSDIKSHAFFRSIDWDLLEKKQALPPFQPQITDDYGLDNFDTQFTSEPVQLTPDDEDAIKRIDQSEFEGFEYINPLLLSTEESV
Method: (§1) A protein kinase C (PKC) assay is designed to duplicate the in vivo conditions required for protein kinase C function. Therefore, pH, salt and cofactor concentrations are similar to physiologic levels. Either lysine rich histone H1 (H1) or Myelin basic protein (Mbp) are used in the assay as the phosphorylation acceptor-protein because they are readily available and serve as good substrates for protein kinase C. Enzyme was prepared from baculovirus-insect cell expression systems.
(§2) In the screening assay, phosphatidylserine (PS) and DAG were co-sonicated to form unilamellar and multilamellar vesicles. The concentration of lipids in the assay were suboptimal to maximize the detection potential of the assay for inhibitors or activators. Potential effector compounds were added to the assay in dimethylsulfoxide at four concentrations to give final inhibitor concentrations of 1, 10, 50, and 150 μM, respectively.
(§3) The assay was started with the addition of enzyme and stopped after 10 min by the addition of 25% trichloroacetic acid (TCA) and 1.0 mg/ml bovine serum albumin (BSA). The radioactive histone product was retained and washed on glass fiber filters that allow the unreacted P-ATP to pass through. The amount of phosphorylation was determined by measuring radioactivity with a scintillation counter. Controls were included in every assay to measure background activity in the absence of enzyme, activity in the absence of lipids, and the maximum enzyme activity with saturating levels of the activator lipids.
(§4) Results of the protein kinase C assay are shown in Table 4 in columns labeled α, βII, γ, δ, ε, and .zeta. which represent various PKC isoenzymes. Results are show as IC50, which is the concentration of test compound needed to inhibit 50% of the protein kinase C activity in controls.

PKC isoenzyme δ = target: T2, PKC isoenzyme δ (Homo sapiens, UniProt Q05655); assay: Protein kinase C inhibition assay, PKC isoenzyme δ; type: biochemical; details: read-out: IC50 PKC δ
T2 construct: made in house; host or cells: baculovirus-insect cell expression system
T2 sequence (Q05655 whole entry): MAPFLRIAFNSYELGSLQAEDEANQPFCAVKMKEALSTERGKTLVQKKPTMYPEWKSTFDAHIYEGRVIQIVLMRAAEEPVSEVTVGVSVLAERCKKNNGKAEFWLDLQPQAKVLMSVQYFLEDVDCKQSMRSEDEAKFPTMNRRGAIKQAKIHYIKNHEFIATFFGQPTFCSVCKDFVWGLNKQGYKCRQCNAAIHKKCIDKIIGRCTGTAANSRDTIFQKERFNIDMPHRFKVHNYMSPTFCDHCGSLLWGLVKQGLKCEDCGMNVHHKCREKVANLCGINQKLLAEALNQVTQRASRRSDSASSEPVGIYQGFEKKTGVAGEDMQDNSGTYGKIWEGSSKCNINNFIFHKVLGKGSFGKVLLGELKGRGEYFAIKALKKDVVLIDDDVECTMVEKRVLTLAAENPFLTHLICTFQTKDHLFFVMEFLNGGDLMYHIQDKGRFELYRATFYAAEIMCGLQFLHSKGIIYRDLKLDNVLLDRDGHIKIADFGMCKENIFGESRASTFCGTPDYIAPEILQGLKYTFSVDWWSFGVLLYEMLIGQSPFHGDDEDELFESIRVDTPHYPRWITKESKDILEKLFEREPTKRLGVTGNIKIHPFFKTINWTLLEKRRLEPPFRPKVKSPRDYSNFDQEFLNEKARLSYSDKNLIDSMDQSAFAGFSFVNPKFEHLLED
Method: as §1, §2, §3, §4

PKC isoenzyme ε = target: T3, PKC isoenzyme ε (Homo sapiens, UniProt Q02156); assay: Protein kinase C inhibition assay, PKC isoenzyme ε; type: biochemical; details: read-out: IC50 PKC ε
T3 construct: made in house; host or cells: baculovirus-insect cell expression system
T3 sequence (Q02156 1-737): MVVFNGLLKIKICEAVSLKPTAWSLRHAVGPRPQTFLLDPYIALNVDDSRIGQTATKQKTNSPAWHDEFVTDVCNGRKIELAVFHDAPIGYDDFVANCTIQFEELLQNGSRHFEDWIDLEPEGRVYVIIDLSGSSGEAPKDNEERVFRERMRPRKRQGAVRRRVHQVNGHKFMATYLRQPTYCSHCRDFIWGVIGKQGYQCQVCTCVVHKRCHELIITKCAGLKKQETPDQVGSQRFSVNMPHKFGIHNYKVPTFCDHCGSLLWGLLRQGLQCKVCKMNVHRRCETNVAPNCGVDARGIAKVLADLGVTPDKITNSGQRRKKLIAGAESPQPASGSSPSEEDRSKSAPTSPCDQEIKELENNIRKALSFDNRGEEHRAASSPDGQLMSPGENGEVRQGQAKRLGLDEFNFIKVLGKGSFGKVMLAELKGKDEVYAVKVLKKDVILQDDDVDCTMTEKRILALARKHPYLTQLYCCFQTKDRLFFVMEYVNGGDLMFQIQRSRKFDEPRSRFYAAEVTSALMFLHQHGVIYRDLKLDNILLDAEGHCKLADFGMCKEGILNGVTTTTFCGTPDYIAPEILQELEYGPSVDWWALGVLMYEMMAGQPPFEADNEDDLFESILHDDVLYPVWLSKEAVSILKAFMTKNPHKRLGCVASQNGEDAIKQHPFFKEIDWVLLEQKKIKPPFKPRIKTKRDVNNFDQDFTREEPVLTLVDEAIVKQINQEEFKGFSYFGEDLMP
Method: as §1, §2, §3, §4

PKC isoenzyme α = target: T4, PKC isoenzyme α (Homo sapiens, UniProt P17252); assay: Protein kinase C inhibition assay, PKC isoenzyme α; type: biochemical; details: read-out: IC50 PKC α
T4 construct: made in house; host or cells: baculovirus-insect cell expression system
Method: as §1, §2, §3, §4

[1] = tested on: normal human epidermal keratinocyte (NHEK) cells; assay: Human Keratinocyte Inhibition (3H TdR Assay); type: cell-based; details: Homo sapiens, 24 h incubation, 3H-thymidine
Method: Proliferating normal human epidermal keratinocyte (NHEK) cells were obtained in the second passage and grown in keratinocyte growth medium, KGM (Clonetics, Inc.) at 37° C., 5% CO2. The cells were trypsinized (0.25%), centrifuged, counted with a hemocytometer, and seeded at a concentration of 5000 cells in 100 μl well in a 96-well microtiter plate.
After the cells were allowed to attach to the microtiter plate overnight, test agents were titrated to determine the dose response. This was done by adding each test agent dilution in quadruplicate to the plate at 2× final concentration in 100 μl to bring the total volume of each well to 200 μl. Culture media with no test agent added was used as a normal control. Duplicate sets of plates were established.
After twenty-four hours of incubation with test compounds 37° C. and 5% CO2, […] of 0.01 mCi/ml tritiated thymidine (New England Nuclear) was added to each well and allowed to incubate for another 4 hours under the same conditions.
Supernatant was aspirated and discarded and […] of 0.05% trypsin (Gibco) was added to each cell. Cells were checked microscopically to determine detachment from surfaces and then harvested onto glass filters. The filters were then placed in vials to which scintillant was added and counted for one minute each in a scintillation counter.
Determine mean cpm of wells containing test agent (n=4) or KGM control (n=16). Calculate % of control by the formula: [formula]
The IC50, or connection necessary to inhibit 50% of control, of each test agent was determined by plotting % control vs log concentration for each dilution and then linear forecasting the 50% control value onto the X axis on a Quatro Pro computer program. Only regression values with a correlation coefficient greater than 0.9 were considered acceptable.

[2] = target: cAMP dependent protein kinase (PKA); assay: cAMP Dependent Protein Kinase (PKA) Assay; type: biochemical; details: for IC50: catalytic subunit of PKA
Method: Compounds found to be inhibitors of protein kinase C were tested for inhibitory activity against cAMP dependent protein kinase (PKA). This enzyme, like protein kinase C, plays an important role in cell-cell communication and is activated by a second messenger, cAMP. Secondary screening against PKA is useful for ascertaining the selectivity of the compounds of the invention.
The catalytic subunit of PKA (Sigma Chemical Company, St. Louis, Mo.) was mixed with buffer before addition of the inhibitor in dimethylsulfoxide (DMSO). Potential inhibitor compounds were added to the assay in dimethylsulfoxide at two concentrations to give final inhibitor concentrations of 30 and 150 μM, respectively. The assay was started by the addition of ^32 P-ATP and the reaction was allowed to proceed for 10 min before stopping with 25% trichloroacetic acid (TCA) and 1.0 mg/ml bovine serum albumin (BSA). Phosphorylated protein was then isolated by filtration and the radioactivity was counted by a beta scintillation counter.

PKC isoenzyme βII = target: T5, PKC isoenzyme βII (Homo sapiens, UniProt P05771); assay: Protein kinase C inhibition assay, PKC isoenzyme βII; type: biochemical; details: read-out: IC50 PKC βII
T5 construct: made in house; host or cells: baculovirus-insect cell expression system
T5 sequence (P05771 1-673 isoform P05771-2): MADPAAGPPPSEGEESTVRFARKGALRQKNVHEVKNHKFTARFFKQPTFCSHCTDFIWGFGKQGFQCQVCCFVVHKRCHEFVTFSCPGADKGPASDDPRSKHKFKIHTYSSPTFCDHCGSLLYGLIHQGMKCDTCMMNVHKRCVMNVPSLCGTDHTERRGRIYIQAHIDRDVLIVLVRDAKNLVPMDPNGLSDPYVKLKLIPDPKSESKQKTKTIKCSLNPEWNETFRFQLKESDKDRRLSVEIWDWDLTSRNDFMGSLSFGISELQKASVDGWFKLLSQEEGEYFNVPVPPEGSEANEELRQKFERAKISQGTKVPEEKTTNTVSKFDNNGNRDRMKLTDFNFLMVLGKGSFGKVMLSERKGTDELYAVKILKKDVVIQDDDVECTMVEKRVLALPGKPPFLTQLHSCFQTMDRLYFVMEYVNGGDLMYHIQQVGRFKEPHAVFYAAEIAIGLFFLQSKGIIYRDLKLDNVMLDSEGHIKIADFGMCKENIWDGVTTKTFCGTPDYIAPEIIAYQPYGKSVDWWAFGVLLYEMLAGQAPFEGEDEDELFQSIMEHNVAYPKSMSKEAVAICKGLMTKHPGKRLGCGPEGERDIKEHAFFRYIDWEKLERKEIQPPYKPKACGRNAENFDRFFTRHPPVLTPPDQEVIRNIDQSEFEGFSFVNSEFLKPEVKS
Method: as §1, §2, §3, §4

PKC isoenzyme γ = target: T6, PKC isoenzyme γ (Homo sapiens, UniProt P05129); assay: Protein kinase C inhibition assay, PKC isoenzyme γ; type: biochemical; details: read-out: IC50 PKC γ
T6 construct: made in house; host or cells: baculovirus-insect cell expression system
Method: as §1, §2, §3, §4

## O=C1C(Nc2ccc(S(=O)(=O)Nc3ncccn3)cc2)=CC(=Nc2ccc(S(=O)(=O)Nc3ncccn3)cc2)c2ccccc21 [Compound 3k]
PKC isoenzyme ζ
  IC50: 37 µM
PKC isoenzyme δ
  IC50: > 150 µM
PKC isoenzyme ε
  IC50: > 150 µM
PKC isoenzyme α
  IC50: 113 µM
[1]
  IC50: 1.8 µM
[2]
  IC50: 111 µM
PKC isoenzyme βII
  IC50: > 150 µM
PKC isoenzyme γ
  IC50: 24 µM

## CCCCCCCCCCCCCCCCNS(=O)(=O)c1ccc(N=C2C=C(Nc3ccc(S(=O)(=O)NCCCCCCCCCCCCCCCC)cc3)C(=O)c3ccccc32)cc1 [Compound 3o]
PKC isoenzyme ζ
  IC50: 26 µM
PKC isoenzyme δ
  IC50: 139 µM
PKC isoenzyme ε
  IC50: > 150 µM
PKC isoenzyme α
  IC50: 117 µM
[1]
  IC50: 3.8 µM
[2]
  IC50: > 150 µM
[2]; result in words
  effect on PKA activity: did not effect on PKA activity
PKC isoenzyme βII
  IC50: 138 µM
PKC isoenzyme γ
  IC50: 118 µM
